Data published in ChEMBL document CHEMBL5500371, “Arginine and tryptophan-rich dendritic antimicrobial peptides that disrupt membranes for bacterial infection in vivo” (Eur J Med Chem, 2024).
Values after ≈ are worked out from the molar mass of the structure shown. Active and inactive are the calls of the source. No cut-off for these calls is given here. Where a SMILES comes first, the peptide text is derived from it. Side-chain parts run from the residue outwards.

Experiments:
[1] = Hemolytic activity in mouse erythrocytes at 256 uM preincubated for 1 to 6 hr with 10% mouse serum and measured after 1 hr by absorbance based analysis; assay type: toxicity, cell-based, Erythrocyte; settings: time 1-7 hrs, read-out: Activity
Escherichia coli [2] = assay: Resistant development in Escherichia coli assessed as increase in MIC at sub-MIC in presence of gentamicin measured after 20 passages; assay type: functional, organism-based
Escherichia coli [3] = assay: Drug resistance, ratio of MIC for Escherichia coli after 20 passages to MIC for Escherichia coli after initial exposure; assay type: functional
Cell membrane [4] = assay: Induction of outer membrane permeabilization in Escherichia coli assessed as increase in fluorescence intensity at 0.5 to 4 times MIC measured within 1 min by NPN dye based assay
Staphylococcus aureus [5] = assay: Antibacterial activity against Staphylococcus aureus ATCC 25923 assessed as inhibition of bacterial growth preincubated with 10% mouse serum for 6 hrs and measured after 20 hrs by broth microdilution method; assay type: functional
Staphylococcus aureus [6] = assay: Antibacterial activity against Staphylococcus aureus ATCC 25923 assessed as inhibition of bacterial growth by measuring fold increase in MIC incubated for 20 hrs in presence of KCl by broth microdilution method relative to control; assay type: functional
Staphylococcus aureus [7] = assay: Synergistic antibacterial activity against Staphylococcus aureus ATCC 25923 assessed as fractional inhibitory concentration index at 0.25 to 4 times MIC incubated for 20 hrs in presence of gentamicin by checkerboard assay; assay type: functional
Cell membrane [8] = assay: Induction of cell membrane damage in Staphylococcus aureus assessed as increase in PI uptake at 2 times MIC measured after 2 hrs by PI dye based flow cytometry analysis; assay type: cell membranes
Cell membrane [9] = assay: Induction of cell membrane damage in Escherichia coli assessed as PI uptake at 2 times MIC measured after 0.5 hrs by PI dye based flow cytometry analysis (reference value: 18.1%); assay type: cell membranes
Staphylococcus aureus [10] = assay: Additive antibacterial activity against Staphylococcus aureus ATCC 25923 assessed as fractional inhibitory concentration index at 0.25 to 4 times MIC incubated for 20 hrs in presence of kanamycin by checkerboard assay; assay type: functional
Escherichia coli [11] = assay: Antibacterial activity against Escherichia coli ATCC 25922 assessed as inhibition of bacterial growth incubated for 20 hrs by broth microdilution method; assay type: functional
Staphylococcus aureus [12] = assay: Antibacterial activity against Staphylococcus aureus ATCC 25923 assessed as inhibition of bacterial growth incubated for 20 hrs by broth microdilution method; assay type: functional
Cell membrane [13] = assay: Induction of cytoplasmic membrane depolarization in Staphylococcus aureus assessed as increase in fluorescence intensity at >1 times MIC measured within 1 min by DISC3-5 dye based fluorescence analysis
Staphylococcus aureus [14] = assay: Drug resistance, ratio of MIC for Staphylococcus aureus after 20 passages to MIC for Staphylococcus aureus after initial exposure; assay type: functional
Staphylococcus aureus [15] = assay: Additive antibacterial activity against gentamicin resistant Staphylococcus aureus ATCC 25923 assessed as fractional inhibitory concentration index at 0.25 to 4 times MIC incubated for 20 hrs in presence of gentamicin by checkerboard assay; assay type: functional
Staphylococcus aureus [16] = assay: Antibacterial activity against Staphylococcus aureus ATCC 25923 assessed as inhibition of bacterial growth by measuring fold increase in MIC incubated for 20 hrs in presence of ZnCl2 by broth microdilution method relative to control; assay type: functional
Pseudomonas aeruginosa = assay: Antibacterial activity against Pseudomonas aeruginosa ATCC 27853 assessed as inhibition of bacterial growth incubated for 20 hrs by broth microdilution method; assay type: functional
Escherichia coli [17] = assay: […] activity against Escherichia coli ATCC 25922 infected in male BALB/c pulmonary infection model assessed as reduction in infiltration of pneumonia cells at 5 to 10 mg/kg, ip administered at 3 and 12 hrs post infection and measured 24 hrs post infection by H and E staining based analysis; assay type: functional, organism-based; settings: dose 5-10 mg/kg, time 12-21 hrs
Staphylococcus aureus [18] = assay: Antibacterial activity against Staphylococcus aureus ATCC 25923 assessed as inhibition of bacterial growth by measuring fold increase in MIC incubated for 20 hrs in presence of NaCl by broth microdilution method relative to control; assay type: functional
Escherichia coli [19] = assay: Additive antibacterial activity against Escherichia coli ATCC 25922 assessed as fractional inhibitory concentration index at 0.25 to 4 times MIC incubated for 20 hrs in presence of vancomycin by checkerboard assay; assay type: functional
Acinetobacter baumannii = assay: Antibacterial activity against Acinetobacter baumannii ATCC 19606 assessed as inhibition of bacterial growth incubated for 20 hrs by broth microdilution method; assay type: functional
Staphylococcus aureus [20] = assay: Antibacterial activity against Staphylococcus aureus ATCC 25923 assessed as inhibition of bacterial growth by measuring fold increase in MIC incubated for 20 hrs in presence of FeCl3 by broth microdilution method relative to control; assay type: functional
Escherichia coli [21] = assay: Antibacterial activity against Escherichia coli ATCC 25922 assessed as inhibition of bacterial growth preincubated with 10% mouse serum for 6 hrs and measured after 20 hrs by broth microdilution method; assay type: functional
Staphylococcus aureus [22] = assay: Antibacterial activity against Staphylococcus aureus ATCC 25923 assessed as inhibition of bacterial growth preincubated with 10% mouse serum for 1 hr and measured after 20 hrs by broth microdilution method; assay type: functional
Escherichia coli [23] = assay: Antibacterial activity against Escherichia coli ATCC 25922 assessed as inhibition of bacterial growth preincubated with 10% mouse serum for 1 hr and measured after 20 hrs by broth microdilution method; assay type: functional
Staphylococcus aureus [24] = assay: Additive antibacterial activity against Staphylococcus aureus ATCC 25923 assessed as fractional inhibitory concentration index at 0.25 to 4 times MIC incubated for 20 hrs in presence of vancomycin by checkerboard assay; assay type: functional
Klebsiella pneumoniae = assay: Antibacterial activity against Klebsiella pneumoniae ATCC 700603 assessed as inhibition of bacterial growth incubated for 20 hrs by broth microdilution method; assay type: functional
Staphylococcus aureus [25] = assay: Antibiofilm activity against Staphylococcus aureus ATCC 25923 assessed as inhibition of biofilm formation at 0.5 to 4 times MIC measured after 24 hrs by crystal violet staining based analysis; assay type: functional, organism-based
Staphylococcus aureus [26] = assay: Antibacterial activity against Staphylococcus aureus ATCC 25923 assessed as inhibition of bacterial growth by measuring fold increase in MIC incubated for 20 hrs in presence of MgCl2 by broth microdilution method relative to control; assay type: functional
Cell membrane [27] = assay: Disruption of cell membrane morphology in Escherichia coli assessed as loss of intact cell morphology at 2 times MIC measured after 0.5 to 2 hrs by SEM analysis; assay type: cell membranes; settings: time 0.5-2 hrs
Escherichia coli [28] = assay: Antibiofilm activity against Escherichia coli ATCC 25922 assessed as inhibition of biofilm formation at 0.5 to 4 times MIC measured after 24 hrs by crystal violet staining based analysis; assay type: functional, organism-based
Staphylococcus aureus [29] = assay: Resistant development in Staphylococcus aureus assessed as increase in MIC at sub-MIC in presence of rifampicin measured after 20 passages; assay type: functional, organism-based
[30] = Acute toxicity in male BALB/c mouse assessed as torpid movement at 80 to 130 mg/kg, ip administered as single dose and measured after 3 days; assay type: organism-based; settings: in vivo, 72 h, dose 80-130 mg/kg, time 3 day
Bacillus subtilis = assay: Antibacterial activity against Bacillus subtilis ATCC 23857 assessed as inhibition of bacterial growth incubated for 20 hrs by broth microdilution method; assay type: functional
Escherichia coli [31] = assay: Synergistic antibacterial activity against Escherichia coli ATCC 25922 assessed as fractional inhibitory concentration index at 0.25 to 4 times MIC incubated for 20 hrs in presence of kanamycin by checkerboard assay; assay type: functional

Compound: N=C(N)NCCC[C@H](NC(=O)[C@@H](N)CCCNC(=N)N)C(=O)NCCCC[C@H](NC(=O)[C@H](CCCNC(=N)N)NC(=O)[C@@H](N)CCCNC(=N)N)C(=O)N[C@@H](Cc1c[nH]c2ccccc12)C(=O)N[C@@H](Cc1c[nH]c2ccccc12)C(=O)N[C@@H](Cc1c[nH]c2ccccc12)C(=O)N[C@@H](Cc1c[nH]c2ccccc12)C(N)=O (H-RRK([Arg-Arg])WWWW-NH2)
- hemolysis at 1 h, 256 µM [1]: < 10%
- Activity (Escherichia coli [2]): inactive
- Ratio (Escherichia coli [3]): <=2
- Activity (Cell membrane [4]): Active
- MIC (Staphylococcus aureus [5]; time 21 hrs): 1 µM (≈ 1.51 µg/mL)
- fold change (FC) (Staphylococcus aureus [6]): <=2
- fractional inhibitory concentration index (FICI) (Staphylococcus aureus [7]): 0.313
- Activity (Cell membrane [8]): inactive
- Activity (Cell membrane [9]): > 80%
- fractional inhibitory concentration index (FICI) (Staphylococcus aureus [10]): 0.563
- MIC (Escherichia coli [11]): 16 µM (≈ 24.2 µg/mL)
- MIC (Staphylococcus aureus [12]): 16 µM (≈ 24.2 µg/mL)
- Activity (Cell membrane [13]): Active
- Ratio (Staphylococcus aureus [14]): <=2
- fractional inhibitory concentration index (FICI) (Staphylococcus aureus [15]): 0.563
- fold change (FC) (Staphylococcus aureus [16]): <=2
- MIC (Pseudomonas aeruginosa): 8 µM (≈ 12.1 µg/mL)
- Activity (Escherichia coli [17]): Active
- fold change (FC) (Staphylococcus aureus [18]): <=2
- fractional inhibitory concentration index (FICI) (Escherichia coli [19]): 0.563
- MIC (Acinetobacter baumannii): 32 µM (≈ 48.5 µg/mL)
- fold change (FC) (Staphylococcus aureus [20]): <=2
- MIC (Escherichia coli [21]; time 26 hrs): 2 µM (≈ 3.03 µg/mL)
- MIC (Staphylococcus aureus [22]; time 21 hrs): 1 µM (≈ 1.51 µg/mL)
- MIC (Escherichia coli [23]; time 21 hrs): 1 µM (≈ 1.51 µg/mL)
- fractional inhibitory concentration index (FICI) (Staphylococcus aureus [24]): 0.563
- MIC (Klebsiella pneumoniae): 64 µM (≈ 96.9 µg/mL)
- Activity (Staphylococcus aureus [25]): Dose-Dependent Effect
- fold change (FC) (Staphylococcus aureus [26]): <=2
- Activity (Cell membrane [27]): Active
- Activity (Escherichia coli [28]): Dose-Dependent Effect
- Activity (Staphylococcus aureus [29]): inactive
- Activity [30]: Toxic
- MIC (Bacillus subtilis): 4 µM (≈ 6.06 µg/mL)

Compound: N=C(N)NCCC[C@H](NC(=O)[C@H](CCCNC(=N)N)NC(=O)[C@H](CCCNC(=N)N)NC(=O)[C@@H](N)CCCNC(=N)N)C(=O)N[C@@H](CCCCN)C(=O)N[C@@H](Cc1c[nH]c2ccccc12)C(=O)N[C@@H](Cc1c[nH]c2ccccc12)C(=O)N[C@@H](Cc1c[nH]c2ccccc12)C(=O)N[C@@H](Cc1c[nH]c2ccccc12)C(N)=O
- hemolysis at 1 h, 256 µM [1]: < 10%
- fractional inhibitory concentration index (FICI) (Escherichia coli [31]): 0.5
- Activity (Escherichia coli [2]): inactive
- Ratio (Escherichia coli [3]): <=2
- Activity (Cell membrane [4]): Active
- MIC (Staphylococcus aureus [5]; time 21 hrs): 2 µM (≈ 3.03 µg/mL)
- fold change (FC) (Staphylococcus aureus [6]): <=2
- fractional inhibitory concentration index (FICI) (Staphylococcus aureus [7]): 0.375
- Activity (Cell membrane [8]): inactive
- Activity (Cell membrane [9]): > 80%
- fractional inhibitory concentration index (FICI) (Staphylococcus aureus [10]): 0.563
- MIC (Escherichia coli [11]): 8 µM (≈ 12.1 µg/mL)
- MIC (Staphylococcus aureus [12]): 8 µM (≈ 12.1 µg/mL)
- Activity (Cell membrane [13]): Active
- Ratio (Staphylococcus aureus [14]): <=2
- fold change (FC) (Staphylococcus aureus [16]): <=2
- MIC (Pseudomonas aeruginosa): 16 µM (≈ 24.2 µg/mL)
- Activity (Escherichia coli [17]): Active
- fold change (FC) (Staphylococcus aureus [18]): <=2
- fractional inhibitory concentration index (FICI) (Escherichia coli [19]): 0.625
- MIC (Acinetobacter baumannii): 64 µM (≈ 96.9 µg/mL)
- fold change (FC) (Staphylococcus aureus [20]): <=2
- MIC (Escherichia coli [21]; time 26 hrs): 4 µM (≈ 6.06 µg/mL)
- MIC (Staphylococcus aureus [22]; time 21 hrs): 2 µM (≈ 3.03 µg/mL)
- MIC (Escherichia coli [23]; time 21 hrs): 2 µM (≈ 3.03 µg/mL)
- fractional inhibitory concentration index (FICI) (Staphylococcus aureus [24]): 0.563
- MIC (Klebsiella pneumoniae): 32 µM (≈ 48.5 µg/mL)
- Activity (Staphylococcus aureus [25]): Dose-Dependent Effect
- fold change (FC) (Staphylococcus aureus [26]): <=2
- Activity (Cell membrane [27]): Active
- Activity (Escherichia coli [28]): Dose-Dependent Effect
- Activity (Staphylococcus aureus [29]): inactive
- Activity [30]: Toxic
- MIC (Bacillus subtilis): 4 µM (≈ 6.06 µg/mL)

Compound: POLYMYXIN B
- fractional inhibitory concentration index (FICI) (Escherichia coli [31]): 0.5
- MIC (Staphylococcus aureus [5]; time 21.0 hrs): 1 µM
- fold change (FC) (Staphylococcus aureus [6]): < 2
- fractional inhibitory concentration index (FICI) (Staphylococcus aureus [7]): 0.313
- fractional inhibitory concentration index (FICI) (Staphylococcus aureus [10]): 0.563
- MIC (Escherichia coli [11]): 4 µM
- MIC (Staphylococcus aureus [12]): 16 µM
- fractional inhibitory concentration index (FICI) (Staphylococcus aureus [15]): 1
- fold change (FC) (Staphylococcus aureus [16]): < 2
- MIC (Pseudomonas aeruginosa): 4 µM
- fold change (FC) (Staphylococcus aureus [18]): 4
- MIC (Acinetobacter baumannii): 2 µM
- fold change (FC) (Staphylococcus aureus [20]): < 2
- MIC (Escherichia coli [21]; time 26.0 hrs): 2 µM
- MIC (Staphylococcus aureus [22]; time 21.0 hrs): 1 µM
- MIC (Escherichia coli [23]; time 21.0 hrs): 1 µM
- fractional inhibitory concentration index (FICI) (Staphylococcus aureus [24]): 0.563
- MIC (Klebsiella pneumoniae): 4 µM
- fold change (FC) (Staphylococcus aureus [26]): < 2
- MIC (Bacillus subtilis): 4 µM
